Source: patent publication US8071795B2, “HIF inhibitors” (Emory University, priority 2005, dated 2011)

Experiments:
[1] = target: HIF-1/HRE pathway; test: LN229-HRE-AP hypoxia-inducible alkaline phosphatase reporter bioassay; format: cell-based, human
Procedure: Genetically engineered LN229 cells (a human glioma cell line) which stably express the alkaline phosphatase reporter gene under the control of six copies of a hypoxia-responsive element was used to identify small-molecule inhibitors of the HIF-1/HRE pathway. The engineered LN229 cell line is disclosed in U.S. Provisional Patent Application No. 60/235,283, which is incorporated by reference in its entirety herein. Cells were seeded at 40,000 cells per well in 96-well plates. Compounds of interest with 2,2-dimethylbenzopyran motifs were added and the plates were incubated under hypoxia (1% O2, 5% CO2 and 94% N2) at 37° C. for 24 h. Cells were then washed with phosphate-buffered saline and incubated with p-nitrophenyl phosphate at 37° C. for 30 min. The reaction was terminated by adding 3 N NaOH and the plates were read for absorbance at 405 nm. The anti-HIF-1/HRE activity of each compound was quantified as the decrease of percentage of alkaline phosphatase (AP) activity compared to the untreated control cells. […]
To screen for small molecule HIF-1 pathway inhibitors, a cell-based assay was established by stably transfecting a glioma cell line with a hypoxia-inducible alkaline phosphatase (AlkPhos) expression vector (LN229-HRE-AP). Exposure of the cells to hypoxia (1% O2) induced reporter gene expression, which could be detected and quantitated by a […] reaction. […]

[2] = tested on: HIF-1α; test: Western blot of total protein levels in LN229 cell extracts; format: cell-based, human
Procedure: (§1) FIG. 11 illustrates an analysis of specificity of KCN1. LN229 cells were pre-treated with KCN1 (25 uM) for 1 h and then put in 1% O2 for […]. Cell extracts were analyzed by Western blot for levels of total proteins (FIG. 11 (A)) and phospho-proteins by multiplex Western FIG. 11 (B)). It should be noted that a strong increase of HIF-1α levels under hypoxia is inhibited by KCN1.
(§2) The above extracts were further analyzed to detect changes in the activity states of key signal transduction proteins by multiplex Western (Kinexus). This method allows the simultaneous screening of 37 different phospho-proteins involved in key cell signaling pathways. […] KCN1 inhibits only HIF-1α under hypoxic conditions (FIG. 11 (C)).

[3] = tested on: phospho-proteins involved in key cell signaling pathways; test: multiplex Western (Kinexus) of phospho-proteins in LN229 cell extracts; format: cell-based, human; conditions: 27 of 37 phospho-proteins
Procedure: as §1, §2

[4] = tested on: HIF-1 alpha mRNA; test: Northern blot of HIF-1 alpha mRNA; format: cell-based; conditions: with or without KCN1 treatment
Procedure: To examine whether KCN1 might interfere with mRNA synthesis or stability Northern blots were performed.
(§3) To gain insight into the possible mechanism of action of KCN1 a number of experiments listed below were performed. First, an experiment focused on whether KCN1 might block HIF at the mRNA or protein level was performed. To examine whether KCN1 might interfere with HIF-1 alpha mRNA synthesis or stability, Northern blots were performed. […] Second, an experiment focused on whether KCN1 might interfere with the ability of HIF to translocate to the nucleus was performed by examining its location by microscopy in LN229 cells. Under hypoxia KCN1 inhibits HIF accumulation, confirming the Western blot results and no HIF is seen in the nucleus or cytoplasm.

[5] = tested on: HIF; test: microscopy of HIF location and HRE-luciferase activity in LN229 cells; format: cell-based, human
From the text: To examine whether KCN1 might interfere with the ability of HIF to translocate to the nucleus, its location was examined by microscopy in LN229 cells containing a stably integrated HRE-luciferase reporter construct. Under hypoxia KCN1 inhibits HIF accumulation and no HIF is seen in the nucleus or cytoplasm. […] Measurement of HIF-induced luciferase activity (lower panel) confirms that HIF is transcriptionally active in the presence of KCN1 in the COCl2 treated cells.
as §3
In addition, experiments focused on whether HIF present in the nucleus of the KCN1 and CoCl2 treated cells was transcriptionally active were performed. […]

[6] = tested on: Akt (Serine 473 phosphorylation), PI3K signaling pathway; test: Akt phosphorylation in response to IGF1; format: cell-based; conditions: 1, 3, and 6 hrs
Procedure: In addition, experiments focused on whether HIF present in the nucleus of the KCN1 and CoCl2 treated cells was transcriptionally active were performed. […] Third, an experiment focused on whether KCN1 might interfere with HIF synthesis through the PI3 kinase/Akt/mTOR pathway that controls mRNA translation was performed. The effects of KCN1 on the phosphorylation of Akt in response to growth factor IGF1 (insulin growth factor 1) were examined. […] This finding might have therapeutic implications independently of the activities of KCN1 on HIF.

[7] = tested on: topoisomerase II; test: kinetoplast DNA decatenation assay; format: biochemical
Procedure: FIG. 15 illustrates that HIF inhibitor F2 (Psammaplin analogue) but not KCN1 inhibits topoisomerase II activity. Purified topo II activity with F2 or KCN1 was analyzed under normoxia using kDNA decatenation assay. To examine the activity, 1% agarose gel with ethidium bromide was used and it enabled to detect catenated kDNA and decatenated kDNA. In lanes 5 and 9, inhibition of topoisomerase II activity was detected as evidenced by the presence of catenated DNA.
Finally, an experiment focused on whether some of the HIF inhibitors might have an effect on topoisomerase function was performed. It has been reported in the literature that some HIF inhibitors may act via a topoisomerase-dependent mechanism (Rapisarda A et al 2004, Cancer Res 64-1475-82). KCN1 and psammaplin analogue F2 (FIG. 8) were tested and their inhibitory effect on topoisomerase II using a kinetoplast DNA decatenation assay (FIG. 15) was examined.

[8] = experimental LogP; format: physicochemical
From the text: Four grams of KCN1 have been synthesized for initial PK and anti-tumor studies. FIG. 10 illustrates an illustrative embodiment of a method for forming KCN1.

[9] = PK study in U87MG-EGFRvIII brain tumor model, HPLC; format: in vivo, mice; conditions: iv. 35 mg/kg; 6, 18 and 24 hrs
Procedure: FIG. 18 illustrates a PK study of KCN1 in a brain tumor model. FIG. 18(A) illustrates MRI of U87MG-EGFRvIII grown in mice brain. FIG. 18(B) illustrates the kinetics of KCN1 accumulation in normal and tumoral brain after iv. injection at 35 mg/kg.
The BBB may constitute an obstacle to drug delivery. To examine whether KCN1 would reside in the brain over a longer period of time and whether it would accumulate in higher amounts in the tumor versus normal brain we carried out a preliminary PK experiment. Nude mice carrying U87MG-EGFRvIII tumors were injected iv. with KCN1 and sacrificed at 6, 18 and 24 hrs. KCN1 concentration in the brain tumor and contra-lateral normal brain was performed by HPLC.

[10] = tested on: HIF-dependent luciferase activity; test: pharmacodynamic BLI study in LN229 HRE-luciferase glioma xenografts; format: in vivo, mouse
Procedure: FIG. 19 illustrates a pharmacodynamic study of KCN1 in nu/nu mouse bearing LN229HRE-luci-ferase gliomas. KCN1 (2 mg) dissolved in DMSO was injected in the right hind tumor, and DMSO control in the left hind tumor. The mouse was injected with D-luciferin and imaged by BLI before FIG. 19 (C) and 5 & 28 hrs after injection. It should be noted strong reduction in HIF-dependent luciferase activity in right hind tumor at 5 hrs and partial recovery of HIF signaling after 28 hrs. (n=2).
It is well appreciated that the efficacy of anti-cancer agents in rodents is an imprecise predictor of the success of these drugs in clinical trials. Therefore, evaluating the molecular and mechanistic end points of drug treatment is an important complementary approach to early pre-clinical studies. With this in mind, we sought to determine whether our lead HIF-1 pathway inhibitor (KCN1) can reduce HIF activity in a glioma xenograft model. In a pilot study, we used a mouse bearing 4 xenografts of LN229 cells containing a stable HIF responsive luciferase reporter (size-matched medium sized tumors in the back and small ones in the front). The HIF-dependent luciferase activity in the tumors was detected by non-invasive BLI. As expected, the larger hind tumors produced the strongest luciferase signal, likely due to the increase in the hypoxic volume. […]

[11] = tested on: LN229 glioma xenograft; test: sc LN229 glioma xenograft growth; format: in vivo, nude mice
Procedure: FIG. 20 illustrates that KCN1 inhibits sc LN229 glioma xenograft growth. LN-229 (5×10^6) was implanted in both flanks of nude mice (8/group) and 1 week later started intraperitoneal injections of KCN1 (60 mg/kg; 5 days/week). FIG. 20(A) illustrates tumor volume over time as measured with a caliper.
(§4) KCN1 was formulated in Cremaphor/EtOH for mice delivery and determined empirically (i.e., without prior under-standing of its in vivo pharmacology) whether preliminary anti-tumorigenic effects could be observed. […] (up to 100 mg/kg) injected animals.

[12] = tolerability in injected animals; format: in vivo; conditions: it. and iv. (up to 100 mg/kg)
Procedure: as §4

In the case of `COc1ccc(S(=O)(=O)N(Cc2ccc3c(c2)C=CC(C)(C)O3)c2ccccc2)cc1OC` [KCN1], the IC50 ([1]; LN229-HRE-AP cells, hypoxia 1% O2) is reported as about 4 µM, the “inhibitory activity relative to initial HIF-inhibitor 85D5R” value ([1]; SAR, modifications in regions I and II) is reported as “improved acitivities” and the “HIF-1α protein level under hypoxia” value ([2]; LN229 cells, KCN1 25 uM, 1% O2, 5 hrs) is reported as “strong anti-HIF-1α activity is detected”. The “stabilization of HIF-1alpha under normoxia” value ([2]; induced by CoCl2, desferroxiamine or MG132) was “is not inhibited”, the “effects on phospho-proteins with detectable phosphorylation” value [3] was under 1.5 fold and the “HIF-1alpha mRNA levels” value [4] was “remained constant”. For the same compound, the “luciferase activity of HRE-luciferase reporter” value ([5]; KCN1 and CoCl2 treated cells) was “remained active”, the “nuclear accumulation of HIF” value ([5]; LN229 cells, CoCl2 conditions) was “does not interfere with nuclear accumulation” and the “IGF1-induced phosphorylation of Akt on Serine 473” value [6] was “not inhibited”. For the same compound, the phospho-Akt level [6] was “increase in phospho-Akt is observed”, the “topo II activity” value ([7]; 5-25 uM) was “did not inhibit” and the “experimental LogP” value [8] was 3.9. The “distribution between brain tumor and contra-lateral normal brain” value [9] was “preferentially accumulates in and is retained in the brain tumor”, the “reduction of HIF-dependent luciferase activity in injected tumor” value ([10]; 2 mg in DMSO intratumoral, 5 hrs) was over 90% and the “HIF-dependent luciferase activity in injected tumor” value ([10]; after 28 h) was “recovered”. The “weight of dissected tumors, fold less than control” value ([11]; 60 mg/kg intraperitoneal, 5 days/week, at termination) was about 6 fold, the tumor growth ([11]; Cremaphor/EtOH formulation) was “strong and sustained inhibition of tumor growth” and the toxicity [12] was “no apparent toxicity was observed”.
In the case of `COc1cc([C@@H]2c3cc4c(cc3[C@@H](O[C@@H]3O[C@@H]5CO[C@@H](C)O[C@H]5[C@H](O)[C@H]3O)[C@H]3COC(=O)[C@H]23)OCO4)cc(OC)c1O` [etoposide, reference compound], the “topo II activity” value ([7]; 100 uM) is reported as “inhibitory activity observed”.
